Source: ChEMBL document CHEMBL2396526, “Chromenylchalcones showing cytotoxicity on human colon cancer cell lines and in silico docking with aurora kinases” (Bioorg Med Chem, 2013)

test system: HCT-116; assay: Cytotoxicity against human HCT116 cells by MTT assay; format: functional, cell-based; conditions: not given

`O=C(O[C@@H]1Cc2c(O)cc(O)cc2O[C@@H]1c1ccc(O)c(O)c1)c1cc(O)c(O)c(O)c1` [EPICATECHIN GALLATE] and `O=C(O[C@H]1Cc2c(O)cc(O)cc2O[C@@H]1c1ccc(O)c(O)c1)c1cc(O)c(O)c(O)c1` [CATECHIN GALLATE] are within 1.5-fold of each other in IC50: 76 µM for the first, 53 µM for the second.

test system: HCT-116; assay: Cytotoxicity against human HCT116 cells assessed as cell survival at 5 to 40 uM after 7 days by crystal violet staining assay; format: functional, cell-based; conditions: HCT-116, 168 h

Going from `COc1ccc2c(c1)C=C(/C=C/C(=O)c1ccccc1OC)CO2` to `COc1ccccc1C(=O)/C=C/C1=Cc2cc(Br)ccc2OC1`, the IC50 rises from 1.04 µM to 6.13 µM (5.9-fold).

Compared with `COc1cc(OC)cc(C(=O)/C=C/C2=Cc3cc(Br)ccc3OC2)c1`, `COc1cc(OC)cc(C(=O)/C=C/C2=Cc3cc(OC)ccc3OC2)c1` is 10-fold higher in IC50: 3.4 µM for the first, 35.5 µM for the second. The first is the more potent here.

Compared with `COc1ccc2c(c1)C=C(C(=O)/C=C/c1ccc(OC)cc1OC)CO2`, `COc1ccc2c(c1)C=C(C(=O)/C=C/c1ccccc1OC)CO2` is 2.5-fold lower in IC50: 3.97 µM for the first, 1.62 µM for the second.

Going from `COc1cc(/C=C/C(=O)C2=Cc3cc(OC)ccc3OC2)cc(OC)c1` to `COc1ccc(/C=C/C(=O)C2=Cc3cc(OC)ccc3OC2)cc1`, the IC50 rises from 0.33 µM to 0.59 µM (1.8-fold).

`COc1ccc(C(=O)/C=C/C2=Cc3cc(OC)ccc3OC2)cc1` and `COc1ccc(C(=O)/C=C/C2=Cc3ccc(OC)cc3OC2)cc1` are within 1.5-fold of each other in IC50: 7.95 µM for the first, 10.5 µM for the second.

Going from `COc1cccc(C(=O)/C=C/C2=Cc3cc(Br)ccc3OC2)c1` to `COc1ccc2c(c1)C=C(C(=O)/C=C/C1=Cc3cccc(OC)c3OC1)CO2`, the IC50 rises from 4.56 µM to 7.19 µM (1.6-fold). The first is the more potent here.

`COc1ccc2c(c1)C=C(C(=O)/C=C/C1=Cc3ccc(OC)cc3OC1)CO2` and `COc1ccc2c(c1)C=C(/C=C/C(=O)C1=Cc3cc(OC)ccc3OC1)CO2` are within 1.5-fold of each other in IC50: 18.8 µM for the first, 12.9 µM for the second.

In the case of `COc1ccc2c(c1)C=C(C(=O)/C=C/c1cc(OC)c(OC)cc1OC)CO2`, the IC50 is reported as 2.5 µM.
